Where two headings read alike, the source gives them in different places.
How the values were obtained:
Experiment in all cases: ActivX kinase probe assay (human PBMC)
Type in all cases: binding
AKT1 = AKT1 (Homo sapiens (Human), UniProt P31749); conditions: read-out: percent inhibition
AMPKa1 = AMPKa1 (Homo sapiens (Human), UniProt Q13131); conditions: read-out: percent inhibition
AMPKa1, AMPKa2 = system: AMPKa1, AMPKa2
BRAF = BRAF (Homo sapiens (Human), UniProt P15056); conditions: read-out: percent inhibition
CaMK1a = CaMK1a (Homo sapiens (Human), UniProt Q14012); conditions: read-out: percent inhibition
CaMK2d = CaMK2d (Homo sapiens (Human), UniProt Q13557); conditions: read-out: percent inhibition
FRAP = FRAP (Homo sapiens (Human), UniProt P42345); conditions: read-out: percent inhibition
FYN = FYN (Homo sapiens (Human), UniProt P06241); conditions: read-out: percent inhibition
GCN2 = GCN2 (Homo sapiens (Human), UniProt Q9P2K8); conditions: read-out: percent inhibition
ILK = ILK (Homo sapiens (Human), UniProt Q13418); conditions: read-out: percent inhibition
IRAK3 = IRAK3 (Homo sapiens (Human), UniProt Q9Y616); conditions: read-out: percent inhibition
IRAK4 = IRAK4 (Homo sapiens (Human), UniProt Q9NWZ3); conditions: read-out: percent inhibition
JAK1 = JAK1 (Homo sapiens (Human), UniProt P23458); conditions: read-out: percent inhibition
JAK3 domain2 = JAK3 domain2 (Homo sapiens (Human), UniProt P52333); conditions: read-out: percent inhibition
LATS2 = LATS2 (Homo sapiens (Human), UniProt Q9NRM7); conditions: read-out: percent inhibition
LOK = LOK (Homo sapiens (Human), UniProt O94804); conditions: read-out: percent inhibition
MAP2K1, MAP2K2 = system: MAP2K1, MAP2K2
MAP2K4 = MAP2K4 (Homo sapiens (Human), UniProt P45985); conditions: read-out: percent inhibition
MAP2K6 = MAP2K6 (Homo sapiens (Human), UniProt P52564); conditions: read-out: percent inhibition
MAP3K1 = MAP3K1 (Homo sapiens (Human), UniProt Q13233); conditions: read-out: percent inhibition
MAP3K5 = MAP3K5 (Homo sapiens (Human), UniProt Q99683); conditions: read-out: percent inhibition
MLKL = MLKL (Homo sapiens (Human), UniProt Q8NB16); conditions: read-out: percent inhibition
NEK7 = NEK7 (Homo sapiens (Human), UniProt Q8TDX7); conditions: read-out: percent inhibition
p38d, p38g = system: p38d, p38g
PIP4K2C = PIP4K2C (Homo sapiens (Human), UniProt Q8TBX8)
PRPK = PRPK (Homo sapiens (Human), UniProt Q96S44); conditions: read-out: percent inhibition
Protocol: Certain of the compounds of the present invention were assessed for kinase selectivity using a commercially available ActiveX targeted kinase probe in which the tissue employed was human peripheral blood mononuclear cells (PBMC). The test compounds were provided to ActivX Biosciences, Inc., 11025 North Torrey Pines Road, Suite 120; LaJolla, Calif., USA 92037. The compounds were run in the ActivX proprietary kinase assay and results were obtained at compound test concentrations of 1 μM (columns 2, 4 and 6) and 0.1 μM (columns 3, 5 and 7). The results as percent inhibition obtained for the compounds of Examples 1, 4 and 217 are provided below in Table 3.

RSK1 domain2 = RSK1 domain2 (Homo sapiens (Human), UniProt Q15418); conditions: read-out: percent inhibition
SGK3 = SGK3 (Homo sapiens (Human), UniProt Q96BR1); conditions: read-out: percent inhibition
STLK5 = STLK5 (Homo sapiens (Human), UniProt Q7RTN6); conditions: read-out: percent inhibition
SYK = SYK (Homo sapiens (Human), UniProt P43405); conditions: read-out: percent inhibition
ZC2/TNIK = ZC2/TNIK (Homo sapiens (Human), UniProt Q9UKE5); conditions: read-out: percent inhibition
[1] = read-out: percent inhibition, PIP4K2C (first line of two)
[2] = read-out: percent inhibition, PIP4K2C (second line of two)

PIP4K2C, sequence (Q8TBX8 whole entry): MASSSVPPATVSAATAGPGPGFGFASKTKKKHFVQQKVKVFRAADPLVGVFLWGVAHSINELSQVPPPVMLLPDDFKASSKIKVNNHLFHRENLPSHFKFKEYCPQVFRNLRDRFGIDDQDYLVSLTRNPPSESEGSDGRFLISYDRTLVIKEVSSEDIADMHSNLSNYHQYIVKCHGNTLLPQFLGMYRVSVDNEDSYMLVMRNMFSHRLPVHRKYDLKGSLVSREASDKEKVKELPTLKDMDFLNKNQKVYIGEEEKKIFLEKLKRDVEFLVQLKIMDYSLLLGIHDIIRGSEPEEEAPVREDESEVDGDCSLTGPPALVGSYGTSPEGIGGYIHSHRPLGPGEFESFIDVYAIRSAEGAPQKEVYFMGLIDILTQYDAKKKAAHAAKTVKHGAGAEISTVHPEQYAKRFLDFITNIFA
IRAK4, sequence (Q9NWZ3 whole entry): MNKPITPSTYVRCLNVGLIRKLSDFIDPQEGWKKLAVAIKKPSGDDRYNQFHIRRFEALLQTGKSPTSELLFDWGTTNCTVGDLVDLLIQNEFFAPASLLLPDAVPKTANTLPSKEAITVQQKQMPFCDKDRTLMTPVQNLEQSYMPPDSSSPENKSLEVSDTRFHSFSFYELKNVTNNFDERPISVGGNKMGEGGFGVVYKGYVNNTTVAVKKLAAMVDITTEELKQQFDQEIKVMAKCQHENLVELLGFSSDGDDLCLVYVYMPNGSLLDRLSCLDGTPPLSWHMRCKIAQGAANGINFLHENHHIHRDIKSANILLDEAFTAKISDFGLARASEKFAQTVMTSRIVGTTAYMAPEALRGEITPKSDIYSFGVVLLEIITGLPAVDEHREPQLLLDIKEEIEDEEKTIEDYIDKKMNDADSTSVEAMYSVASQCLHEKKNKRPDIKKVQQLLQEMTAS
MAP3K5, sequence (Q99683 whole entry): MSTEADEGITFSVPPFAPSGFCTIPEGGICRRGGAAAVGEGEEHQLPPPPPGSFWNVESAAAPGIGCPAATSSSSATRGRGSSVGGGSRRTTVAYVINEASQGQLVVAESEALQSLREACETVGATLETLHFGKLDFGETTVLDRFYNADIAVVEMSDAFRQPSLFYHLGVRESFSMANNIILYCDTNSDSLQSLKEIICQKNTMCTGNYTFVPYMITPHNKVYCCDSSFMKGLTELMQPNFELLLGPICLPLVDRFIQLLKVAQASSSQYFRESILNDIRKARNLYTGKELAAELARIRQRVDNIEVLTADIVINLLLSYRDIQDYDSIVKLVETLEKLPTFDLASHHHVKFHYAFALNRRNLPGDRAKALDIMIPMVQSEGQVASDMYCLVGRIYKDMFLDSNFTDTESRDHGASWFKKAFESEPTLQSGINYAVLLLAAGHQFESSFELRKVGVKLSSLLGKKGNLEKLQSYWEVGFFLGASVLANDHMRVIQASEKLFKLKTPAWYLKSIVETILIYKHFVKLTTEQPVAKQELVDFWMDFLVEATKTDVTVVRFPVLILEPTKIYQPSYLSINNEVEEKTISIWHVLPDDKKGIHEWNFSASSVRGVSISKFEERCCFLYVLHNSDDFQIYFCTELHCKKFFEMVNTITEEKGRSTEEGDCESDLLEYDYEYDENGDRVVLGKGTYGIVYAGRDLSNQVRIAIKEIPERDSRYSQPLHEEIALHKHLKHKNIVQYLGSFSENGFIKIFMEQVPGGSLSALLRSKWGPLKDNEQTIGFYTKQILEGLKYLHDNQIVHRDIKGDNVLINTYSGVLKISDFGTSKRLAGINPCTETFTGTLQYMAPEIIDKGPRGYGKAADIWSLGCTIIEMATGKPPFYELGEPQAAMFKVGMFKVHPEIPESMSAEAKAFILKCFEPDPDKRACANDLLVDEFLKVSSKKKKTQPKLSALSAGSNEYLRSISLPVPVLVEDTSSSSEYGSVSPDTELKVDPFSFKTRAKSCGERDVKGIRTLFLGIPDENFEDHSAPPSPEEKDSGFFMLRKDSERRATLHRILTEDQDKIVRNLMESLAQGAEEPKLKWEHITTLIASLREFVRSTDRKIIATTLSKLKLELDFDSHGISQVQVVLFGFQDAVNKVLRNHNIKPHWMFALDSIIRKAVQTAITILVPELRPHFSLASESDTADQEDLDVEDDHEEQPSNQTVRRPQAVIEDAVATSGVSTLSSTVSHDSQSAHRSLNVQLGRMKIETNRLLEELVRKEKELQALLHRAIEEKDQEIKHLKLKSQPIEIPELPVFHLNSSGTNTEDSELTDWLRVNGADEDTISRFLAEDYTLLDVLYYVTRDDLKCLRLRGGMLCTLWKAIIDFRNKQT
LATS2, sequence (Q9NRM7 whole entry): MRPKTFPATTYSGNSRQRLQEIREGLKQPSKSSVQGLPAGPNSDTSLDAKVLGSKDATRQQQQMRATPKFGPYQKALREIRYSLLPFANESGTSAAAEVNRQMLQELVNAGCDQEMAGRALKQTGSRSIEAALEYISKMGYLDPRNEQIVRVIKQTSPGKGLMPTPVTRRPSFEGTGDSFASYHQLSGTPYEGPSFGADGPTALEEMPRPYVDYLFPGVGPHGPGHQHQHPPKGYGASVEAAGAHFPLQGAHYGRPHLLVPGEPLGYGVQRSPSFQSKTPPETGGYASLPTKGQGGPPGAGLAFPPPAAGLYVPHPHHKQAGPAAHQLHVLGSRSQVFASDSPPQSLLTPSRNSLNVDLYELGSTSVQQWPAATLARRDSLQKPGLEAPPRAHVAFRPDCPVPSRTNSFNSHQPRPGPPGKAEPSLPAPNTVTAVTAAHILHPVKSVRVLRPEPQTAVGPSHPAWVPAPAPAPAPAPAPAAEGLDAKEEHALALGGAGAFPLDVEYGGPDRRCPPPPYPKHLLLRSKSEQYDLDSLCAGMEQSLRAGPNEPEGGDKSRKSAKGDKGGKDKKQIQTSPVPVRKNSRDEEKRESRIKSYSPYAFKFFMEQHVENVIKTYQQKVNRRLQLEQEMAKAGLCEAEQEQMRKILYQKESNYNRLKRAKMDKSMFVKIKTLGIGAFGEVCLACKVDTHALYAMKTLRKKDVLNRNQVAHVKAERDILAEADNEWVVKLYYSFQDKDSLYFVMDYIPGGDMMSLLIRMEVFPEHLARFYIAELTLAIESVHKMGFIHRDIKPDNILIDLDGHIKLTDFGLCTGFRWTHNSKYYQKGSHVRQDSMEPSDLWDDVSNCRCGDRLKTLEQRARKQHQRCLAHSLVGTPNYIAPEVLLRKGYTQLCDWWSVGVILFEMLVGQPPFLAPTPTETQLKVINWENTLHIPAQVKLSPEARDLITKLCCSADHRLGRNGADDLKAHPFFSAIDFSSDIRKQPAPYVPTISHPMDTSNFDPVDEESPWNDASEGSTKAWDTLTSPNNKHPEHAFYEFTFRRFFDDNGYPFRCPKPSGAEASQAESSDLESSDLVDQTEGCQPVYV
NEK7, sequence (Q8TDX7 whole entry): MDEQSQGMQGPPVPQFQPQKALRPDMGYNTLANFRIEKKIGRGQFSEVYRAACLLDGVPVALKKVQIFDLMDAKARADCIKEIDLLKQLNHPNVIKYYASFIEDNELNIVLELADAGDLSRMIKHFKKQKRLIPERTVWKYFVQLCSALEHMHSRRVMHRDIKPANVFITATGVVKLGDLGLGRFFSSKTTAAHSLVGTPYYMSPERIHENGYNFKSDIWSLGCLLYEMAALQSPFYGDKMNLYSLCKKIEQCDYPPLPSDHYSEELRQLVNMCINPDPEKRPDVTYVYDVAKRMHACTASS
STLK5, sequence (Q7RTN6 whole entry): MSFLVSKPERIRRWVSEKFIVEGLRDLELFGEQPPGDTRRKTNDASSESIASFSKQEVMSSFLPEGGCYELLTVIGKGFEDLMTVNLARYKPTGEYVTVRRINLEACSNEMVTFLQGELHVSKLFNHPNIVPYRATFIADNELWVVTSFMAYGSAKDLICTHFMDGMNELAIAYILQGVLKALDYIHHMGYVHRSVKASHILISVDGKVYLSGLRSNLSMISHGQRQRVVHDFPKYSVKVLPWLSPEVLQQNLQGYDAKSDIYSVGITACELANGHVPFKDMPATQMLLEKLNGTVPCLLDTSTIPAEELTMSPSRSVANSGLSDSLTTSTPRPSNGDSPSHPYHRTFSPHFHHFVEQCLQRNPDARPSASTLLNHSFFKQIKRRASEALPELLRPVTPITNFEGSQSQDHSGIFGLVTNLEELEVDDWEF
IRAK3, sequence (Q9Y616 whole entry): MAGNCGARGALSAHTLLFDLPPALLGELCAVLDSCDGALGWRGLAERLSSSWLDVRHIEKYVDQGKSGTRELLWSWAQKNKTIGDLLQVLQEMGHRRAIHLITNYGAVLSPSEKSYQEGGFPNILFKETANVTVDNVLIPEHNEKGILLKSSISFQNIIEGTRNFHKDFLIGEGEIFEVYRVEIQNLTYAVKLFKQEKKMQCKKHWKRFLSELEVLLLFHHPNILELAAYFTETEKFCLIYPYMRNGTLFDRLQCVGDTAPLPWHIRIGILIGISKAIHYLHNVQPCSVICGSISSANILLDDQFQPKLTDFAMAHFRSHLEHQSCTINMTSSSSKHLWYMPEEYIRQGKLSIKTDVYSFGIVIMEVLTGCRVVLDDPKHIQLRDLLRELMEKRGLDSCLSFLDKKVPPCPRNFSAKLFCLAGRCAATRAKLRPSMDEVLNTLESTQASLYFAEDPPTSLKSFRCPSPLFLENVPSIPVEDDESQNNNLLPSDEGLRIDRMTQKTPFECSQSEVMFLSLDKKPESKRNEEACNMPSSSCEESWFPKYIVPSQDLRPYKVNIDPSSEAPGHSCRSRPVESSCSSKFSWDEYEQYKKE
CaMK1a, sequence (Q14012 whole entry): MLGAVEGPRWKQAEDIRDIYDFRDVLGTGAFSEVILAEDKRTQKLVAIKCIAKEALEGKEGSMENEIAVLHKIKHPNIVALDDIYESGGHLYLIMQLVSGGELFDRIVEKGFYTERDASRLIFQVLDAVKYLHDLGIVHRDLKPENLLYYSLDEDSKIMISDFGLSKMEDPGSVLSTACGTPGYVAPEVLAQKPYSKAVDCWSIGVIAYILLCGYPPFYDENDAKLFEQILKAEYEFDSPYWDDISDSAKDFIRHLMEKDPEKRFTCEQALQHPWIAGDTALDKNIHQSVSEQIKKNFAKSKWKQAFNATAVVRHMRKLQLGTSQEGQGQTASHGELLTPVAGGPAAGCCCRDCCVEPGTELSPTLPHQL

For `N#Cc1cccc(-c2c[nH]c3ncnc(N4CCOCC4)c23)c1` [Example 4, 3-[4-(Morpholin-4-yl)-7H-pyrrolo[2,3-d]pyrimidin-5-yl]benzonitrile], the inhibition at 0.1 µM (AKT1) was -8.8%, the inhibition at 1 µM (AKT1) was -6.3% and the inhibition at 0.1 µM (AMPKa1) was -2.1%. The inhibition at 1 µM (AMPKa1) was 16.4%, the percent inhibition (AMPKa1, AMPKa2; 0.1 μM) was −4.5% and the percent inhibition (AMPKa1, AMPKa2; 1 μM) was 32.5%. For the same compound, the inhibition at 0.1 µM (BRAF) was 1.2%, the inhibition at 1 µM (BRAF) was -1.2% and the inhibition at 0.1 µM (CaMK1a) was -9.2%. It also gave an inhibition at 1 µM (CaMK1a) of 1.9%, an inhibition at 0.1 µM (CaMK2d) of -0.4% and an inhibition at 1 µM (CaMK2d) of 10.8%. For the same compound, the inhibition at 0.1 µM (FRAP) was -20.7%, the inhibition at 1 µM (FRAP) was 9.8% and the inhibition at 0.1 µM (FYN) was -1.9%. The inhibition at 1 µM (FYN) was -9.1%, the inhibition at 0.1 µM (GCN2) was -13.6% and the inhibition at 1 µM (GCN2) was 0.6%. It also gave an inhibition at 0.1 µM (ILK) of -8.9%, an inhibition at 1 µM (ILK) of -31.6% and an inhibition at 0.1 µM (IRAK3) of 29.8%. The inhibition at 1 µM (IRAK3) was 33.7%, the inhibition at 0.1 µM (IRAK4) was -12.8% and the inhibition at 1 µM (IRAK4) was 10.7%. The inhibition at 0.1 µM (JAK1) was -9.3%, the inhibition at 1 µM (JAK1) was 5% and the inhibition at 0.1 µM (JAK3 domain2) was 6.9%. For the same compound, the inhibition at 1 µM (JAK3 domain2) was 6.8%, the inhibition at 0.1 µM (LATS2) was -7.2% and the inhibition at 1 µM (LATS2) was 16.2%. The inhibition at 0.1 µM (LOK) was 11.9%, the inhibition at 1 µM (LOK) was 53.6% and the percent inhibition (MAP2K1, MAP2K2; 0.1 μM) was −7.1%. The percent inhibition (MAP2K1, MAP2K2; 1 μM) was 6.4%, the inhibition at 0.1 µM (MAP2K4) was -20.5% and the inhibition at 1 µM (MAP2K4) was 19.2%. For the same compound, the inhibition at 0.1 µM (MAP2K6) was -15.1%, the inhibition at 1 µM (MAP2K6) was 13.5% and the inhibition at 0.1 µM (MAP3K1) was 6.4%. For the same compound, the inhibition at 1 µM (MAP3K1) was 44.5%, the inhibition at 0.1 µM (MAP3K5) was 3.3% and the inhibition at 1 µM (MAP3K5) was 21.3%. It also gave an inhibition at 0.1 µM (MLKL) of -10.1%, an inhibition at 1 µM (MLKL) of 14.5% and an inhibition at 0.1 µM (NEK7) of 2.2%. For the same compound, the inhibition at 1 µM (NEK7) was 7.3%, the percent inhibition (p38d, p38g; 0.1 μM) was −17.5% and the percent inhibition (p38d, p38g; 1 μM) was −5.7%. For the same compound, the inhibition at 0.1 µM (PIP4K2C; [1]) was 3.1%, the inhibition at 1 µM (PIP4K2C; [1]) was 58.4% and the inhibition at 0.1 µM (PIP4K2C; [2]) was 9.3%. For the same compound, the inhibition at 1 µM (PIP4K2C; [2]) was 54.3%, the inhibition at 0.1 µM (PRPK; 0.1 μM) was 3% and the inhibition at 1 µM (PRPK; 1 μM) was -3.7%. It also gave an inhibition at 0.1 µM (RSK1 domain2) of 2.7%, an inhibition at 1 µM (RSK1 domain2) of 55.8% and an inhibition at 0.1 µM (SGK3) of -5.5%. For the same compound, the inhibition at 1 µM (SGK3) was -0.8%, the inhibition at 0.1 µM (STLK5) was -15.4% and the inhibition at 1 µM (STLK5) was 1.2%. It also gave an inhibition at 0.1 µM (SYK) of -8.3%, an inhibition at 1 µM (SYK) of 7.2% and an inhibition at 0.1 µM (ZC2/TNIK) of -7.9%. The inhibition at 1 µM (ZC2/TNIK) was 29.2%.

— patent US9156845B2, “4-(substituted amino)-7H-pyrrolo[2,3-d] pyrimidines as LRRK2 inhibitors” (Pfizer Inc., priority 2012, dated 2015)
